Experimental data taken from PubChem BioAssay AID1996.
Values after ≈ are worked out from the molar mass of the structure shown.

Conditions: buffer; pH 7.4; 200.0 µM

| SMILES | solubility kinetic |
| --- | --- |
| Cc1cc(/C=C(\C#N)C(=O)N2CCOCC2)c(C)n1C1CCCC1 | 32.9 µg/mL (≈ 100 µM) |
| O=C(Nc1scc(-c2ccccc2)c1C(=O)O)c1ccccc1F | > 51.2 µg/mL |
| Cl.OC(c1ccccc1)C(CN1CCOCC1)c1ccccc1 (stereo unspecified) | > 50.1 µg/mL |
| Cc1csc(SCC(=O)NC(=O)C2CCCCC2)n1 | > 44.8 µg/mL |
| COc1ccc(C(=O)NCCNc2nc3c(C)cccc3cc2C#N)cc1 | 0.4 µg/mL (≈ 1.11 µM) |
| CS(=O)(=O)c1ccc(Cl)c(NC(=O)Nc2ccccc2)c1 | 5.1 µg/mL (≈ 15.7 µM) |
| Cc1[nH]c2ccccc2c1/C=N/NC(=O)CNC(=O)c1ccco1 | > 48.7 µg/mL |
| COC(=O)c1sccc1NC(=O)c1ccccc1F | 1 µg/mL (≈ 3.58 µM) |
| COc1nc2ccccc2nc1N1CCN(C)CC1 | 38.4 µg/mL (≈ 149 µM) |
| CCOc1ccccc1CNc1nc2ccccc2n1C | 5.2 µg/mL (≈ 18.5 µM) |
| COCCNC(=O)c1ccccc1NC(=O)Nc1ccccc1 | > 47 µg/mL |
| O=C(NCCc1ccc(F)cc1)c1ccc2nccnc2c1 | 41.6 µg/mL (≈ 141 µM) |
| CCC(=O)NC(=S)Nc1ccc(S(=O)(=O)NC2CCCCC2)cc1 | 0.4 µg/mL (≈ 1.08 µM) |
| Cc1c(Cl)cccc1NC(=S)NCc1ccc(F)cc1 | 3.7 µg/mL (≈ 12 µM) |
| Nc1ccc([As](=O)(O)O)cc1 | > 32.6 µg/mL |
| O=C(NC1CCCCC1)C1COc2ccccc2O1 (stereo unspecified) | > 39.2 µg/mL |
| CCCCNC(=S)Nc1ccc(C(F)(F)F)cc1 | 15.7 µg/mL (≈ 56.8 µM) |
| c1ccc(-c2ccc(-c3ccccn3)s2)nc1 | 4.2 µg/mL (≈ 17.6 µM) |
| CN(C)/C=C/C(=O)c1cccc(C(F)(F)F)c1 | > 36.5 µg/mL |
| COc1ccc(NC(=O)CN(C)C(=O)c2ccc3ccccc3n2)cc1 | > 52.4 µg/mL |
| CC(NC(N)=O)C(=O)NCC(=O)OCc1ccccc1 (stereo unspecified) | > 41.9 µg/mL |
| Cc1ccc(CC(=O)N2CCN(C)CC2)cc1 | > 34.8 µg/mL |
| O=C(NC(=S)NCC1CCCO1)c1ccco1 (stereo unspecified) | 37.6 µg/mL (≈ 148 µM) |
| CCN1CCN(CCC(=O)Nc2ccccc2C)CC1 | > 41.3 µg/mL |
| Clc1ccc(C(c2ccccc2)N2CCN(c3ccccn3)CC2)cc1 (stereo unspecified) | 0.9 µg/mL (≈ 2.47 µM) |

| SMILES | solubility kinetic |
| --- | --- |
| CC(=O)Nc1ccc(NC(=O)CSCc2ccccc2Cl)cc1 | 12.7 µg/mL (≈ 36.4 µM) |
| COc1ccc(C(C)NC(=O)C23CC4CC(CC(C4)C2)C3)cc1OC (stereo unspecified) | 40.2 µg/mL (≈ 117 µM) |
| O=C(c1ccc(F)cc1)N1CCCC(c2ccccc2)C1 (stereo unspecified) | 36.3 µg/mL (≈ 128 µM) |
| Cc1ccccc1NC(=O)C(C)N1C(=O)c2ccccc2C1=O (stereo unspecified) | > 46.3 µg/mL |
| Cc1cc(NS(=O)(=O)c2ccc(NC(=O)Cc3ccc([N+](=O)[O-])cc3)cc2)nc(C)n1 | > 66.2 µg/mL |
| Cc1c(Cl)cccc1NC(=O)CCN1CCOCC1 | > 42.4 µg/mL |
| O=C(Nc1cccc([N+](=O)[O-])c1)Nc1cnccn1 | 1.2 µg/mL (≈ 4.63 µM) |
| CN1CCN(C(=O)c2cc(Br)cn2C)CC1 | > 42.9 µg/mL |
| CN(C)CCN(C(=O)c1ccc2ccccc2c1)c1nc2ccc(Br)cc2s1.Cl | 3.6 µg/mL |
| CC(C)(C)S(=O)(=O)c1ccccc1-c1noc(-c2ccccc2)c1C(N)=O | > 57.7 µg/mL |
| Cn1c(O)c(C=Nc2ccc(F)cc2)c(=O)[nH]c1=O | 11.9 µg/mL (≈ 45.2 µM) |
| Cc1ccc(OCC(=O)OCC(=O)Nc2ccc3c(c2)OCO3)cc1C | 9.6 µg/mL (≈ 26.9 µM) |
| COc1ccc(C(=O)CSc2cc(C)[nH]c(=O)n2)cc1 | 23.7 µg/mL (≈ 81.6 µM) |
| COc1ccc(CN2CC(C(=O)NCCC(C)C)CC2=O)cc1 (stereo unspecified) | > 47.8 µg/mL |
| CNC(=O)C(=O)Nc1cc2c3c(c1)C(C)C(=O)N3CCC2 (stereo unspecified) | > 43.1 µg/mL |
| CSc1cccc(NC(=S)N2CCC(c3ccccc3)C2)c1 (stereo unspecified) | 2.2 µg/mL (≈ 6.7 µM) |
| CCNC(=O)c1c(O)c2c([nH]c1=O)CCCC2 | 3 µg/mL (≈ 12.7 µM) |
| O=C(CCCl)N1CCCC2(CCCCC2)C1 | 30.1 µg/mL (≈ 123 µM) |
| Cc1ccc(N/C=C/C(=O)c2ccccc2)cc1Br | < 0.7 µg/mL |
| CC(C)(C)NCc1ccc(OCc2cccs2)cc1.Cl | 36.8 µg/mL |
| N#CC(c1cccnc1)N1CCOCC1 (stereo unspecified) | > 30.5 µg/mL |
| O=C(CNC(=O)c1ccc(N2CCCC2=O)cc1)Nc1ccc(F)c(F)c1F | 5.5 µg/mL (≈ 14.1 µM) |
| Cc1cc(C)c(S(=O)(=O)NC2CC(C)(C)NC(C)(C)C2)cc1Br | 12.5 µg/mL (≈ 31 µM) |
| CN(C)c1cc(Nc2ccc(O)cc2)c([N+](=O)[O-])c2nonc12 | 0.7 µg/mL (≈ 2.22 µM) |
| Cc1cc(C)c(C#N)c(SCCN2CCOCC2)n1 | > 41.6 µg/mL |

| SMILES | solubility kinetic |
| --- | --- |
| COc1cccc(CNC(=O)N2CCN(c3ccccc3)CC2)c1 | 20.5 µg/mL (≈ 63 µM) |
| Cc1c(Cl)cccc1NC(=O)Cc1cccs1 | 11.1 µg/mL (≈ 41.8 µM) |
| CCCC12CN3CC(C)(CN(C1)C3c1cccs1)C2=O (stereo unspecified) | 39.1 µg/mL (≈ 135 µM) |
| O=C(Nc1nccs1)c1c(O)c2c([nH]c1=O)CCCC2 | 0.9 µg/mL (≈ 3.09 µM) |
| Cc1ccc(C(=O)OCC(=O)NCc2ccc3c(c2)OCO3)cc1S(=O)(=O)N1CCOCC1 | 7.2 µg/mL (≈ 15.1 µM) |
| Cn1ccc(/C=N/N=C2/NC(=O)CS2)n1 | > 33.5 µg/mL |
| CCOC(=O)c1ccc(S(=O)(=O)N2CCN(CCc3ccncc3)CC2)cc1 | > 60.5 µg/mL |
| Cn1cc(CCC(=O)NCCCc2ccccc2)c2ccccc21 | 25.8 µg/mL (≈ 80.5 µM) |
| CCN(CC)CC(=O)Nc1ccc(C)cc1C(=O)c1ccccc1 | > 48.7 µg/mL |
| O=C(Nc1ccccc1Cl)C1C(c2ccccc2)C1(Cl)Cl (stereo unspecified) | < 0.7 µg/mL |
| O=[N+]([O-])c1cc2c(cc1CN1CCN(c3ccccc3F)CC1)OCO2 | 1.1 µg/mL (≈ 3.06 µM) |
| O=[N+]([O-])c1[nH]cnc1/C=C/c1ccccc1 | 1.8 µg/mL (≈ 8.36 µM) |
| CCN1CSC(=S)N(Cc2ccccc2)C1 | 37.5 µg/mL (≈ 149 µM) |
| Cc1nc(SCC(=O)N(C)C2CCS(=O)(=O)C2)c2ccccc2n1 (stereo unspecified) | > 54.8 µg/mL |
| CCN(C(=O)CSc1nc(C)cc(=O)[nH]1)C1CCCCC1 | > 46.4 µg/mL |
| O=C1/C(=C/c2cccs2)SC(=S)N1c1cccc(O)c1 | 1 µg/mL (≈ 3.13 µM) |
| COCCCNC(=O)C(CC(N)=O)NC(=O)OCc1ccccc1 (stereo unspecified) | > 50.6 µg/mL |
| O=C(O)CN1C(=O)c2ccc(C(=O)c3ccccc3)cc2C1=O | 45.8 µg/mL (≈ 148 µM) |
| O=C(NCCc1ccccc1F)c1ccc2c(c1)OCCO2 | > 45.2 µg/mL |
| Nc1nc(-c2cc(-c3ccccc3)no2)cs1 | 4.4 µg/mL (≈ 18.1 µM) |
| O=C1CC(c2ccco2)Sc2ccccc2N1 (stereo unspecified) | > 36.8 µg/mL |
| Cc1ccccc1NCc1nc2ccccc2n1C | 5 µg/mL (≈ 19.9 µM) |
| CCc1ccc(OCC(=O)Nc2ccncc2)c(Br)c1 | 15.5 µg/mL (≈ 46.2 µM) |
| CCN(CC)C(=S)Nc1c(C)n(C)n(-c2ccccc2)c1=O | > 47.8 µg/mL |
| COC(=O)C(Cc1c[nH]c2ccccc12)NC(=O)c1cccs1 (stereo unspecified) | > 49.3 µg/mL |

| SMILES | solubility kinetic |
| --- | --- |
| O=C(CNC(=O)c1ccco1)OCc1ccccc1F | > 41.6 µg/mL |
| CC1=CC(C)(C)Nc2ccc(OC(=O)CN3C(=O)c4cccc5cccc(c45)C3=O)cc21 | 56.3 µg/mL (≈ 132 µM) |
| Nc1c2c(nc3cccc(Cl)c13)N(c1ccccc1)CC2 | 0.9 µg/mL (≈ 3.04 µM) |
| COC(=O)c1ccc(N2CCCCC2)c(N)c1 | > 35.1 µg/mL |
| O=C(O)CCCCCNCc1c(Cl)cccc1Cl | 41.6 µg/mL (≈ 143 µM) |
| Cc1c(C(=O)c2ccccc2)c(=O)n(C)c(=O)n1C | > 38.7 µg/mL |
| Clc1nssc1=Nc1ccccc1 | 22.3 µg/mL (≈ 97.5 µM) |
| CCCCn1c(C)c(C(=O)OCC)c2c(CN3CCCC3)c(O)ccc21 | 53.1 µg/mL (≈ 148 µM) |
| CCC(=O)c1c[nH]c(C(=O)N2CCOCC2)c1 | 33.7 µg/mL (≈ 143 µM) |
| CCOC(=O)N1CCN(C(=O)CSc2nc3nc(C)cc(C)n3n2)CC1 | > 56.8 µg/mL |
| O=C(COC(=O)C1CC1)NCc1ccc(Cl)cc1Cl | 41.9 µg/mL (≈ 139 µM) |
| Cc1csc(NC(=O)c2ccc(N3CCCC3=O)cc2)n1 | 4.7 µg/mL (≈ 15.6 µM) |
| CN(C)C(=O)CSc1ncccc1-c1nc2ccccc2[nH]1 | 42.6 µg/mL (≈ 136 µM) |
| COc1ccc(CNC(=O)CCn2c(C)csc2=O)cc1 | > 46 µg/mL |
| CCC(=O)N(Cc1cc(=O)[nH]c2ccccc12)c1ccc(C)cc1C | 43.9 µg/mL (≈ 131 µM) |
| Cc1ccc(C(=O)NCC(=O)Nc2ccc(S(=O)(=O)Nc3cc(C)nc(C)n3)cc2)cc1 | > 68 µg/mL |
| O=C(N/C(=C/c1cccc([N+](=O)[O-])c1)C(=O)N1CCCC1)c1ccccc1 | 51.9 µg/mL (≈ 142 µM) |
| COc1cccc(C(=O)CC(=O)C(=O)Nc2cccc([N+](=O)[O-])c2C)c1 | 31.6 µg/mL (≈ 88.7 µM) |
| COc1ccccc1Nc1ncccc1[N+](=O)[O-] | 1.2 µg/mL (≈ 4.89 µM) |
| O=C(NC1CCN(C(=O)NCc2ccccc2)CC1)c1ccccc1 | 6.2 µg/mL (≈ 18.4 µM) |
| Cc1ccc2c(CN3CCOCC3)cc(=O)oc2c1 | > 38.9 µg/mL |
| CC(O)c1nc2ccccc2n1C(C)c1ccccc1 (stereo unspecified) | > 40 µg/mL |
| Cc1ccc(C(=O)OCC(=O)N2CC(C)OC(C)C2)cc1 (stereo unspecified) | > 43.7 µg/mL |
| CC1(C)CC(=O)C=C(Nc2ccc3c(c2)CCC3)C1 | 35.8 µg/mL (≈ 140 µM) |
| O=C(NC1CC1)c1sc2cc(F)ccc2c1Cl | 9.4 µg/mL (≈ 34.8 µM) |

| SMILES | solubility kinetic |
| --- | --- |
| COc1cc(C)ccc1OCC(=O)OCC(=O)c1ccc[nH]1 | > 45.5 µg/mL |
| CCc1nc(C)cn1S(=O)(=O)c1ccc(Br)cc1 | > 49.4 µg/mL |
| O=C1NC2(CCCCC2)C(=O)N1c1ccc(Cl)cc1 | 3.8 µg/mL (≈ 13.6 µM) |
| O=[N+]([O-])c1ccccc1OCc1nc(-c2cccs2)no1 | 0.9 µg/mL (≈ 2.97 µM) |
| C=CCN1C(=O)/C(=C/c2cc(C)n(-c3cccnc3)c2C)C(=O)NC1=S | 12.9 µg/mL (≈ 35.2 µM) |
| CO[C@H]1O[C@H](C)[C@@H](O)C[C@H]1NC(=O)OCc1ccccc1 | > 44.3 µg/mL |
| Cc1cc(Br)c(NC(=O)COC(=O)C2CCCCC2)c(Br)c1 | 10.1 µg/mL (≈ 23.3 µM) |
| CSc1ncccc1C(=O)OCC(=O)N1CC2(C)CC1CC(C)(C)C2 (stereo unspecified) | > 54.4 µg/mL |
| NS(=O)(=O)c1ccc(CCNc2ccccc2[N+](=O)[O-])cc1 | 2.9 µg/mL (≈ 9.02 µM) |
| O=C1N(c2ccccc2)CCN1c1ccccc1 | < 0.3 µg/mL |
| O=C(NCc1ccccc1Cl)C1CCN(c2cnccn2)CC1 | > 49.6 µg/mL |
| O=C(Cc1ccc(Cl)cc1)Nc1ccc(Br)cn1 | 1.4 µg/mL (≈ 4.3 µM) |
| N=C(N=C(N)N)N1CCc2ccccc21 | > 30.5 µg/mL |
| CN(C)C(CNC(=O)c1ccccc1C(F)(F)F)c1ccco1 (stereo unspecified) | > 48.9 µg/mL |
| CC(=O)N(CN1C(=O)CCC1=O)c1ccc(Cl)c(Cl)c1 | > 47.3 µg/mL |
| CC(C)C(NC(=O)c1ccccc1F)C(=O)NCC(c1ccco1)N1CCCCC1 (stereo unspecified) | > 62.3 µg/mL |
| CN(CCc1ccccn1)Cc1ccc(Cl)c(Cl)c1 | 29.2 µg/mL (≈ 98.9 µM) |
| CC1CC(C)CN(C(=O)COC(=O)c2nccnc2N)C1 (stereo unspecified) | > 43.9 µg/mL |
| NC(=O)CSc1nnc(-c2ccco2)n1-c1ccccc1 | > 45.1 µg/mL |
| COc1ccc(S(=O)(=O)N2CCOc3ccccc32)cc1 | 17.6 µg/mL (≈ 57.6 µM) |
| CC(C)CNC(=O)c1cccc2c1-c1ccccc1C2=O | 2.5 µg/mL (≈ 8.95 µM) |
